# Reference: ChEMBL document CHEMBL2396516, “Synthesis of novel bis(pyrimido[5,4-c]quinoline-2,4(1H,3H)-dione) and its derivatives: evaluation of their antioxidant properties” (Bioorg Med Chem Lett, 2013)
# How the values were obtained:
# Assay type in all cases: functional
# [1] = tested on: Radical scavenging activity; assay: Antioxidant activity assessed as DPPH free radical scavenging activity by spectrophotometry
# [2] = Antioxidant activity assessed as reduction of ferric ion to ferrous ion by FRAP assay
# [3] = tested on: Radical scavenging activity; assay: Antioxidant activity assessed as DPPH free radical scavenging activity at 20 ug/ml by spectrophotometry
SMILES,IC50 [1] [µg/mL],IC50 [2] [µg/mL],Activity [3] [%]
O=c1[nH]c(=S)[nH]c2c1C(c1ccccc1[N+](=O)[O-])Nc1nc3c(cc1-2)-c1[nH]c(=S)[nH]c(=O)c1C(c1ccccc1[N+](=O)[O-])N3 (stereo not drawn),13.6,30.47,73.6
O=c1[nH]c2c(c(=O)[nH]1)C(c1cccc([N+](=O)[O-])c1)Nc1nc3c(cc1-2)-c1[nH]c(=O)[nH]c(=O)c1C(c1cccc([N+](=O)[O-])c1)N3 (stereo not drawn),14.24,34.9,70.2
O=c1[nH]c(=S)[nH]c2c1C(c1ccccc1)Nc1cc3c(cc1-2)NC(c1ccccc1)c1c-3[nH]c(=S)[nH]c1=O (stereo not drawn),12.62,32.1,79.6
O=c1[nH]c2c(c(=O)[nH]1)C(c1ccc(Cl)cc1)Nc1cc3c(cc1-2)NC(c1ccc(Cl)cc1)c1c-3[nH]c(=O)[nH]c1=O (stereo not drawn),11.8,23.21,85.2
O=c1[nH]c2c(c(=O)[nH]1)C(c1cccc([N+](=O)[O-])c1)Nc1cc3c(cc1-2)NC(c1cccc([N+](=O)[O-])c1)c1c-3[nH]c(=O)[nH]c1=O (stereo not drawn),12.39,33.28,81.7
O=c1[nH]c(=S)[nH]c2c1C(c1cccc([N+](=O)[O-])c1)Nc1cc3c(cc1-2)NC(c1cccc([N+](=O)[O-])c1)c1c-3[nH]c(=S)[nH]c1=O (stereo not drawn),12.68,33.7,79.3
O=c1[nH]c(=S)[nH]c2c1C(c1ccc(Cl)cc1)Nc1nc3c(cc1-2)-c1[nH]c(=S)[nH]c(=O)c1C(c1ccc(Cl)cc1)N3 (stereo not drawn),12.36,25,80.9
O=c1[nH]c(=S)[nH]c2c1C(c1cccc([N+](=O)[O-])c1)Nc1nc3c(cc1-2)-c1[nH]c(=S)[nH]c(=O)c1C(c1cccc([N+](=O)[O-])c1)N3 (stereo not drawn),14.34,34.93,70.1
O=c1[nH]c2c(c(=O)[nH]1)C(c1ccccc1)c1ccccc1N2 (stereo not drawn),18.91,–,–
O=c1[nH]c2c(c(=O)[nH]1)C(c1ccccc1[N+](=O)[O-])Nc1nc3c(cc1-2)-c1[nH]c(=O)[nH]c(=O)c1C(c1ccccc1[N+](=O)[O-])N3 (stereo not drawn),13.56,31.39,74
O=c1[nH]c(=S)[nH]c2c1C(c1ccccc1Cl)Nc1cc3c(cc1-2)NC(c1ccccc1Cl)c1c-3[nH]c(=S)[nH]c1=O (stereo not drawn),11.99,24.46,84.1
O=c1[nH]c(=S)[nH]c2c1C(c1ccc(Cl)cc1)Nc1cc3c(cc1-2)NC(c1ccc(Cl)cc1)c1c-3[nH]c(=S)[nH]c1=O (stereo not drawn),11.93,24.11,84.4
O=c1[nH]c2c(c(=O)[nH]1)C(c1ccccc1)Nc1cc3c(cc1-2)NC(c1ccccc1)c1c-3[nH]c(=O)[nH]c1=O (stereo not drawn),12.15,32.76,82
O=c1[nH]c(=S)[nH]c2c1C(c1ccccc1Cl)Nc1nc3c(cc1-2)-c1[nH]c(=S)[nH]c(=O)c1C(c1ccccc1Cl)N3 (stereo not drawn),12.41,25.07,80.6
O=c1[nH]c(=S)[nH]c2c1C(c1ccccc1[N+](=O)[O-])Nc1cc3c(cc1-2)NC(c1ccccc1[N+](=O)[O-])c1c-3[nH]c(=S)[nH]c1=O (stereo not drawn),12.15,29.5,82
O=c1[nH]c2c(c(=O)[nH]1)C(c1ccc([N+](=O)[O-])cc1)Nc1nc3c(cc1-2)-c1[nH]c(=O)[nH]c(=O)c1C(c1ccc([N+](=O)[O-])cc1)N3 (stereo not drawn),13.48,26.06,74.2
O=c1[nH]c(=S)[nH]c2c1C(c1ccc([N+](=O)[O-])cc1)Nc1cc3c(cc1-2)NC(c1ccc([N+](=O)[O-])cc1)c1c-3[nH]c(=S)[nH]c1=O (stereo not drawn),12.17,25.21,82.3
O=c1[nH]c(=S)[nH]c2c1C(c1ccc([N+](=O)[O-])cc1)Nc1nc3c(cc1-2)-c1[nH]c(=S)[nH]c(=O)c1C(c1ccc([N+](=O)[O-])cc1)N3 (stereo not drawn),13.56,26.25,74
O=c1[nH]c2c(c(=O)[nH]1)C(c1ccccc1[N+](=O)[O-])Nc1cc3c(cc1-2)NC(c1ccccc1[N+](=O)[O-])c1c-3[nH]c(=O)[nH]c1=O (stereo not drawn),12.07,29.08,82.7
O=c1[nH]c2c(c(=O)[nH]1)C(c1ccccc1)Nc1nc3c(cc1-2)-c1[nH]c(=O)[nH]c(=O)c1C(c1ccccc1)N3 (stereo not drawn),14.21,33.91,70.6
O=c1[nH]c2c(c(=O)[nH]1)C(c1ccc([N+](=O)[O-])cc1)Nc1cc3c(cc1-2)NC(c1ccc([N+](=O)[O-])cc1)c1c-3[nH]c(=O)[nH]c1=O (stereo not drawn),12.44,25.01,80.9
O=c1[nH]c2c(c(=O)[nH]1)C(c1ccc(Cl)cc1)Nc1nc3c(cc1-2)-c1[nH]c(=O)[nH]c(=O)c1C(c1ccc(Cl)cc1)N3 (stereo not drawn),12.35,24.41,81.1
O=c1[nH]c2c(c(=O)[nH]1)C(c1ccccc1Cl)Nc1nc3c(cc1-2)-c1[nH]c(=O)[nH]c(=O)c1C(c1ccccc1Cl)N3 (stereo not drawn),12.42,25.51,80.8
O=c1[nH]c2c(c(=O)[nH]1)C(c1ccccc1Cl)Nc1cc3c(cc1-2)NC(c1ccccc1Cl)c1c-3[nH]c(=O)[nH]c1=O (stereo not drawn),12.05,24.01,84
O=c1[nH]c(=S)[nH]c2c1C(c1ccccc1)Nc1nc3c(cc1-2)-c1[nH]c(=S)[nH]c(=O)c1C(c1ccccc1)N3 (stereo not drawn),14.25,33.5,70.4
